Source: patent publication US20090131468A1, “Bis-(Sulfonylamino) Derivatives in Therapy 065” (AstraZeneca AB, priority 2007, published 2009)

These compounds were tested against T1, human mPGES-1 (Homo sapiens, UniProt O14684) (assay: Microsomal prostaglandin E synthase biochemical assay). Conditions: microsome preparation containing human mPGES-1; PGH2 10.8 μM, GSH 2.5 mM, pH 6.8; PGE2 quantified by HTRF; average of at least n=2.
T1 sequence (O14684 1-152): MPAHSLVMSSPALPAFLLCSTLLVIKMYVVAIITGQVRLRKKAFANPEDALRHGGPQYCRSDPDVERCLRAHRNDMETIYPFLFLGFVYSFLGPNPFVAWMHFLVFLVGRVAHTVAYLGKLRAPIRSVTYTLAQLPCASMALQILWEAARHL
How it was run: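 Human mPGES-1 microsomes (from IL-1β-stimulated A549 cells or Sf9 cells expressing human mPGES-1) were pre-incubated 15 min with compound in potassium phosphate buffer pH 6.8 with GSH. PGH2 was then added, and the reaction was stopped after one minute with acidic ferric chloride/citrate. PGE2 was read by HTRF, and IC50 was taken from control-normalised activity.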

First: NS(=O)(=O)c1ccccc1S(=O)(=O)NC(=O)c1ccc(-c2cc3ccccc3o2)cc1C(F)(F)F [Example 150, 4-(Benzofuran-2-yl)-N-(2-sulfamoylphenylsulfonyl)-2-(trifluoromethyl)benzamide]
Second: NS(=O)(=O)c1ccccc1S(=O)(=O)NC(=O)c1ccc(-c2cc3ccccc3o2)cc1O [Example 49, 4-(Benzofuran-2-yl)-2-hydroxy-N-(2-sulfamoylphenylsulfonyl)benzamide]
The IC50 of the first is 44-fold higher: 360 nM for the first, 8.1 nM for the second.

Compared with `COC(C)(C)CCOc1cc(C(=O)NS(=O)(=O)c2ccccc2S(N)(=O)=O)ccc1-c1cc2ccccc2o1` [Example 145, 4-(Benzofuran-2-yl)-3-(3-methoxy-3-methylbutoxy)-N-(2-sulfamoylphenylsulfonyl)-benzamide], `NS(=O)(=O)c1ccccc1S(=O)(=O)NC(=O)c1ccc(-c2cc3ccccc3o2)c(O)c1` [Example 51, 4-(Benzofuran-2-yl)-3-hydroxy-N-(2-sulfamoylphenylsulfonyl)benzamide] is 6.8-fold lower in IC50: 23 nM for the first, 3.4 nM for the second.

Compared with `NS(=O)(=O)c1ccccc1S(=O)(=O)NC(=O)c1ccc(C#CC2CC2)c(OCCC(F)(F)F)c1` [Example 160, 4-(Cyclopropylethynyl)-N-(2-sulfamoylphenylsulfonyl)-3-(3,3,3-trifluoropropoxy)-benzamide], `CC(C)Oc1cc(C(=O)NS(=O)(=O)c2ccccc2S(N)(=O)=O)ccc1C#CC1CC1` [Example 132, 4-(Cyclopropylethynyl)-3-isopropoxy-N-(2-sulfamoylphenylsulfonyl)benzamide] is 3.4-fold higher in IC50: 32 nM for the first, 110 nM for the second.

Compared with `CC(C)Oc1cc(C(=O)NS(=O)(=O)c2ccccc2S(N)(=O)=O)ccc1C#CC(C)(C)O` [Example 129, 4-(3-Hydroxy-3-methylbut-1-ynyl)-3-isopropoxy-N-(2-sulfamoylphenylsulfonyl)-benzamide], `COc1cc(C(=O)NS(=O)(=O)c2ccccc2S(N)(=O)=O)ccc1C#CC(C)(C)C` [Example 110, 4-(3,3-Dimethylbut-1-ynyl)-3-methoxy-N-(2-sulfamoylphenylsulfonyl)benzamide] is 26-fold lower in IC50: 7000 nM for the first, 270 nM for the second. The second is the more potent here.

Compared with `CC(C)(C)C#Cc1ncc(C(=O)NS(=O)(=O)c2ccccc2S(N)(=O)=O)cn1` [Example 96, 2-(3,3-Dimethylbut-1-ynyl)-N-(2-sulfamoylphenylsulfonyl)pyrimidine-5-carboxamide], `CC(C)(C)C#Cc1ccc(C(=O)NS(=O)(=O)c2ccccc2S(N)(=O)=O)cc1` [Example 43, 4-(3,3-Dimethylbut-1-ynyl)-N-(2-sulfamoylphenylsulfonyl)benzamide] is 61-fold lower in IC50: 1700 nM for the first, 28 nM for the second. The second is the more potent here.

Compared with `Cc1cc(C#CC2CCCC2)ccc1C(=O)NS(=O)(=O)c1ccccc1S(N)(=O)=O` [Example 67, 4-(Cyclopentylethynyl)-2-methyl-N-(2-sulfamoylphenylsulfonyl)benzamide], `NS(=O)(=O)c1ccccc1S(=O)(=O)NC(=O)c1ccc(C#CC2CCCC2)cc1O` [Example 92, 4-(Cyclopentylethynyl)-2-hydroxy-N-(2-sulfamoylphenylsulfonyl)benzamide] is 4.5-fold lower in IC50: 85 nM for the first, 19 nM for the second.

`CC(C)Oc1cc(C(=O)NS(=O)(=O)c2ccccc2S(N)(=O)=O)cnc1C#CC1CCCC1` [Example 143, 6-(Cyclopentylethynyl)-5-isopropoxy-N-(2-sulfamoylphenylsulfonyl)nicotinamide] and `CC(C)Oc1cc(C(=O)NS(=O)(=O)c2ccccc2S(N)(=O)=O)ccc1C#CC1CCCCC1` [Example 131, 4-(Cyclohexylethynyl)-3-isopropoxy-N-(2-sulfamoylphenylsulfonyl)benzamide] are the same in IC50: 14 nM for the first, 14 nM for the second.

Going from `NS(=O)(=O)c1ccccc1S(=O)(=O)NC(=O)c1ccc2oc(-c3ccccn3)cc2c1` [Example 122, 2-(Pyridin-2-yl)-N-(2-sulfamoylphenylsulfonyl)benzofuran-5-carboxamide] to `COc1cccc(-c2cc3cc(C(=O)NS(=O)(=O)c4ccccc4S(N)(=O)=O)ccc3o2)c1` [Example 74, 2-(3-Methoxyphenyl)-N-(2-sulfamoylphenylsulfonyl)benzofuran-5-carboxamide], the IC50 falls from 650 nM to 24 nM (27-fold).

Compared with `CC(C)(O)C#Cc1cccc(C(=O)NS(=O)(=O)c2ccccc2S(N)(=O)=O)c1` [Example 59, 3-(3-Hydroxy-3-methylbut-1-ynyl)-N-(2-sulfamoylphenylsulfonyl)benzamide], `CC(C)(O)C#Cc1ccc(C(=O)NS(=O)(=O)c2ccccc2S(N)(=O)=O)cc1` [Example 44, 4-(3-Hydroxy-3-methylbut-1-ynyl)-N-(2-sulfamoylphenylsulfonyl)benzamide] is 4.3-fold higher in IC50: 56 nM for the first, 240 nM for the second.

Compared with `COCCn1c(-c2ccccc2)cc2cc(C(=O)NS(=O)(=O)c3ccccc3S(N)(=O)=O)ccc21` [Example 141, 1-(2-Methoxyethyl)-2-phenyl-N-(2-sulfamoylphenylsulfonyl)-1H-indole-5-carboxamide], `NS(=O)(=O)c1ccccc1S(=O)(=O)NC(=O)c1ccc(-c2cc3ccccc3o2)cc1` [Example 3, 4-Benzofuran-2-yl-N-(2-sulfamoylphenyl)sulfonyl-benzamide] is 52-fold lower in IC50: 300 nM for the first, 5.8 nM for the second.

Compared with `NS(=O)(=O)c1ccccc1S(=O)(=O)NC(=O)c1ccc(Br)cc1F` [Example 14, 4-Bromo-2-fluoro-N-(2-sulfamoylphenyl)sulfonyl-benzamide], `NS(=O)(=O)c1ccccc1S(=O)(=O)NC(=O)c1ccc(C#CC2CCCC2)cc1F` [Example 85, 4-(Cyclopentylethynyl)-2-fluoro-N-(2-sulfamoylphenylsulfonyl)benzamide] is 29-fold lower in IC50: 1400 nM for the first, 49 nM for the second.

Compared with `NS(=O)(=O)c1ccccc1S(=O)(=O)NC(=O)c1ccc(-c2nc3cnccc3o2)cc1` [Example 6, 4-(7-Oxa-3,9-diazabicyclo [4.3.0]nona-2,4,8,10-tetraen-8-yl)-N-(2-sulfamoylphenyl)-sulfonyl-benzamide], `NS(=O)(=O)c1ccccc1S(=O)(=O)NC(=O)c1ccc(-c2nc3ccccc3o2)cc1` [Example 8, 4-Benzooxazol-2-yl-N-(2-sulfamoylphenyl)sulfonyl-benzamide] is 13-fold lower in IC50: 1100 nM for the first, 86 nM for the second.

Going from `COc1c(-c2cc3ccccc3o2)ccc(C(=O)NS(=O)(=O)c2ccccc2S(N)(=O)=O)c1C` [Example 69, 4-(Benzofuran-2-yl)-3-methoxy-2-methyl-N-(2-sulfamoylphenylsulfonyl)benzamide] to `NS(=O)(=O)c1ccccc1S(=O)(=O)NC(=O)c1ccc(-c2cc3ccccc3o2)c2ccccc12` [Example 62, 4-(Benzofuran-2-yl)-N-(2-sulfamoylphenylsulfonyl)-1-naphthamide], the IC50 falls from 79 nM to 20 nM (4-fold).

Compared with `CC(C)C#Cc1ccc(C(=O)NS(=O)(=O)c2ccccc2S(N)(=O)=O)cn1` [Example 99, 6-(3-Methylbut-1-ynyl)-N-(2-sulfamoylphenylsulfonyl)nicotinamide], `NS(=O)(=O)c1ccccc1S(=O)(=O)NC(=O)c1ccc(C#Cc2ccccn2)nc1` [Example 94, 6-(Pyridin-2-ylethynyl)-N-(2-sulfamoylphenylsulfonyl)nicotinamide] is 32-fold higher in IC50: 400 nM for the first, 13000 nM for the second.

`COCC#Cc1ccc(C(=O)NS(=O)(=O)c2ccccc2S(N)(=O)=O)cc1` [Example 53, 4-(3-Methoxyprop-1-ynyl)-N-(2-sulfamoylphenylsulfonyl)benzamide] and `COc1cc(C(=O)NS(=O)(=O)c2ccccc2S(N)(=O)=O)ccc1C#CC(C)(C)OC` [Example 114, 3-Methoxy-4-(3-methoxy-3-methylbut-1-ynyl)-N-(2-sulfamoylphenylsulfonyl)-benzamide] are the same in IC50: 1600 nM for the first, 1600 nM for the second.

First: NS(=O)(=O)c1ccccc1S(=O)(=O)NC(=O)C1CC2CCC1C2 (stereo not drawn) [Example 17, N-(2-Sulfamoylphenyl)sulfonylnorbornane-2-carboxamide]
Second: NS(=O)(=O)c1ccccc1S(=O)(=O)NC(=O)c1ccc(C#CC2CCCC2)c(CO)c1 [Example 98, 4-(Cyclopentylethynyl)-3-(hydroxymethyl)-N-(2-sulfamoylphenylsulfonyl)benzamide]
The IC50 of the first is 89-fold higher: 9800 nM for the first, 110 nM for the second. The second is the more potent here.

Going from `NS(=O)(=O)c1ccccc1S(=O)(=O)NC(=O)c1ccc2oc(C3CCCC3)cc2c1` [Example 78, 2-Cyclopentyl-N-(2-sulfamoylphenylsulfonyl)benzofuran-5-carboxamide] to `COC(C)(C)c1cc2cc(C(=O)NS(=O)(=O)c3ccccc3S(N)(=O)=O)ccc2o1` [Example 125, 2-(2-Methoxypropan-2-yl)-N-(2-sulfamoylphenylsulfonyl)benzofuran-5-carboxamide], the IC50 rises from 5700 nM to 12000 nM (2.1-fold).

First: COc1c(C#CC2CCCC2)ccc(C(=O)NS(=O)(=O)c2ccccc2S(N)(=O)=O)c1F [Example 86, 4-(Cyclopentylethynyl)-2-fluoro-3-methoxy-N-(2-sulfamoylphenylsulfonyl)benzamide]
Second: COc1c(C#CC(C)(C)C)ccc(C(=O)NS(=O)(=O)c2ccccc2S(N)(=O)=O)c1C [Example 68, 4-(3,3-Dimethylbut-1-ynyl)-3-methoxy-2-methyl-N-(2-sulfamoylphenylsulfonyl)-benzamide]
The IC50 of the first is 28-fold lower: 71 nM for the first, 2000 nM for the second. The first is the more potent here.

Compared with `CCCc1c(C(=O)NS(=O)(=O)c2ccccc2S(N)(=O)=O)cnn1-c1cc(Cl)cc(Cl)c1` [Example 38, 1-(3,5-Dichlorophenyl)-5-propyl-N-(2-sulfamoylphenyl)sulfonyl-pyrazole-4-carboxamide], `COCCOCCOc1cc(C(=O)NS(=O)(=O)c2ccccc2S(N)(=O)=O)cnc1C#CC(C)(C)C` [Example 134, 6-(3,3-Dimethylbut-1-ynyl)-5-(2-(2-methoxyethoxy)ethoxy)-N-(2-sulfamoylphenyl-sulfonyl)nicotinamide] is 8.3-fold lower in IC50: 1500 nM for the first, 180 nM for the second.

Compound `NS(=O)(=O)c1cc(CO)ccc1S(=O)(=O)NC(=O)c1ccc(-c2cc3ccccc3o2)cc1` [Example 161, 4-(Benzofuran-2-yl)-N-(4-(hydroxymethyl)-2-sulfamoylphenylsulfonyl)benzamide] has an IC50 of 320 nM.
